Experimental data from BindingDB's records for doi:10.1021/jm00018a028 (University of Nebraska Medical Center, 1995).

Assay: Ability to induce shape change (polarization) in human polymorphonuclear leukocytes (PMN)

In order of falling EC50:
1. H-YSFKDMQLGR-OH [Tyr-Ser-Phe-LyS-Asp-Met-Glu-Leu-Gly-Arg]  37 µM
2. H-YSFKDMQPGR-OH  22 µM
3. CC(C)C[C@H](NC(=O)[C@@H]1CCCN1C(=O)[C@H](C)NC(=O)[C@H](CC(=O)O)NC(=O)[C@H](CCCCN)NC(=O)[C@H](Cc1ccccc1)NC(=O)[C@H](CO)NC(=O)[C@@H](N)Cc1ccc(O)cc1)C(=O)NCC(=O)N[C@@H](CCCNC(=N)N)C(=O)O  15.8 µM
4. CSCC[C@H](NC(=O)[C@H](CC(=O)O)NC(=O)[C@H](CCCCN)NC(=O)[C@H](Cc1ccccc1)NC(=O)[C@H](CO)NC(=O)[C@@H](N)Cc1ccc(O)cc1)C(=O)N1CCC[C@H]1C(=O)N[C@@H](CC(C)C)C(=O)NCC(=O)N[C@@H](CCCNC(=N)N)C(=O)O  5 µM
5. H-YSFKGLLLGR-OH  0.3 µM
